Experimental data: ChEMBL document CHEMBL3525927, “Measurement of unbound drug exposure in brain: modeling of pH partitioning explains diverging results between the brain slice and brain homogenate methods” (Drug Metab Dispos, 2011); call rule not given here

Assays:
in vivo = settings: Sprague-Dawley, rat
Brain [1] = settings: rat, 5 h, 0.1 µM
in vitro = settings: Sprague-Dawley, rat, brain homogenate
Brain [2] = experiment: Unbound volume of distribution in Sprague-Dawley rat brain slices at 100 nM after 5 hrs in presence of 10 uM of cyclosporine; type: ADME, tissue-based; settings: 0.1 µM
Brain [3] = experiment: Drug uptake in Sprague-Dawley rat brain slices in presence of 50 nM of monensin; type: ADME, tissue-based
Brain [4] = experiment: Drug uptake in Sprague-Dawley rat brain slices in presence of 1 uM of decynium-22; type: ADME, tissue-based
Brain [5] = experiment: Drug uptake in Sprague-Dawley rat brain slices at 100 nM after 5 hrs in presence of 10 uM of cyclosporine; type: ADME, tissue-based; settings: 0.1 µM
[6] = Dissociation constant, pKa of the basic compound by capillary electrophoresis-mass spectrometry analysis; type: physicochemical
Brain [7] = settings: rat, in vivo, 5 h, 0.1 µM
Description: Drug uptake in Sprague-Dawley rat brain slices at 100 nM after 5 hrs in presence of 20 uM of MK-571

Brain [8] = settings: rat, in vivo, 5 h, 0.1 µM; remark: listed apart in the source
Description: Drug uptake in Sprague-Dawley rat brain slices at 100 nM after 5 hrs in presence of 10 uM of fumitremorgin-C and 20 uM of MK-571

Brain [9] = settings: rat, in vivo, 5 h, 0.1 µM; remark: listed apart in the source
Description: Drug uptake in Sprague-Dawley rat brain slices at 100 nM after 5 hrs in presence of 10 uM of fumitremorgin-C

Brain [10] = settings: Sprague-Dawley, rat, brain homogenate, 5 µM
Brain [11] = experiment: Drug uptake in Sprague-Dawley rat brain slices in presence of 50 pM to 50 nM of monensin; type: ADME, tissue-based

Description for physchem: Dissociation constant, pKa of the acidic compound by capillary electrophoresis-mass spectrometry analysis

SMILES | Kp uu (in vivo; brain) | Vdu (Brain [1]; in vivo) | pKa (physchem) | fraction unbound at 5 µM (in vitro) | Kp uu (in vivo; brain and plasma) | Vdu (Brain [1]) | also measured
CC(C)(C)NC(=O)[C@@H]1C[C@@H]2CCCC[C@@H]2CN1C[C@@H](O)[C@H](Cc1ccccc1)NC(=O)[C@H](CC(N)=O)NC(=O)c1ccc2ccccc2n1 | 0.79 | 208 mL/g | 6.8 | 0.0038 | – | – | Unbound brain volume of distribution (Brain [2]): Active
C[n+]1ccc(-c2ccccc2)cc1 | – | – | – | 0.49 | 77 | 157 mL/g | Compound recovery (Brain [3]): Not Active; Compound recovery (Brain [4]): Not Active
CCNC(=O)C(C(N)=O)c1ccccc1 (stereo unspecified) | 0.6 | 0.93 mL/g | – | 0.65 | – | – | –
C=C[C@H]1C[N+]2(C)CC[C@H]1C[C@@H]2[C@@H](O)c1ccnc2ccc(OC)cc12 | – | – | – | 0.23 | 1.06 | 4.6 mL/g | Compound recovery (Brain [3]): Active; Compound recovery (Brain [4]): Not Active; Unbound brain volume of distribution (Brain [2]): Active
Cc1c(O)cccc1C(=O)N[C@@H](CSc1ccccc1)[C@H](O)CN1C[C@H]2CCCC[C@H]2C[C@H]1C(=O)NC(C)(C)C | – | – | 6.3 | 0.00072 | 0.62 | 860 mL/g | Compound recovery (Brain [5]): Not Active; Unbound brain volume of distribution (Brain [2]): Active
Cc1nnc2n1-c1ccc(Cl)cc1C(c1ccccc1)=NC2 [ALPRAZOLAM] | – | – | – | 0.16 | – | 6.5 mL/g | –
C=CCc1ccccc1OCC(O)CNC(C)C (stereo unspecified) [ALPRENOLOL] | 2.83 | 50 mL/g | – | 0.057 | – | – | –
NC12CC3CC(CC(C3)C1)C2 [AMANTADINE] | 2.83 | 9.9 mL/g | – | 0.29 | – | – | –
CN(C)CCC=C1c2ccccc2CCc2ccccc21 [AMITRIPTYLINE] | – | 310 mL/g | 9.5 | 0.01 | 3.08 | – | –
NCC(CC(=O)O)c1ccc(Cl)cc1 (stereo unspecified) [BACLOFEN] | – | – | 9.7 | 0.98 | 1.62 | 1.7 mL/g | pKa [6]: 3.7
CC(NC(C)(C)C)C(=O)c1cccc(Cl)c1 (stereo unspecified) [BUPROPION] | – | – | 8.6 | – | 2.66 | 16 mL/g | –
CN/C(=N/CCSCc1nc[nH]c1C)NC#N [CIMETIDINE] | 1.73 | 2.3 mL/g | 7 | 0.76 | – | – | –
Clc1cccc(Cl)c1N=C1NCCN1 [CLONIDINE] | 2.47 | 5.9 mL/g | 8.3 | 0.42 | – | – | –
COc1ccc2c3c1O[C@H]1[C@@H](O)C=C[C@H]4[C@@H](C2)N(C)CC[C@@]341 [CODEINE] | 1.99 | 3.2 mL/g | 8.4 | 0.62 | – | – | –
CC(C)Nc1cccnc1N1CCN(C(=O)c2cc3cc(NS(C)(=O)=O)ccc3[nH]2)CC1 [DELAVIRDINE] | 0.86 | 40 mL/g | 4.5 | 0.022 | – | – | –
O=C(O)Cc1ccccc1Nc1c(Cl)cccc1Cl [DICLOFENAC] | – | – | – | 0.041 | 0.61 | 15 mL/g | –
O=C1OC2(c3ccc(O)cc3Oc3cc(O)ccc32)c2ccccc21 [FLUORESCEIN] | – | 1.8 mL/g | – | 0.42 | 0.74 | – | –
NCC1(CC(=O)O)CCCCC1 [GABAPENTIN] | – | – | 10.5 | – | 4.55 | 4.6 mL/g | pKa [6]: 3.9
COc1ccc2c(c1)c(CC(=O)O)c(C)n2C(=O)c1ccc(Cl)cc1 [INDOMETHACIN] | 0.6 | 14 mL/g | – | 0.044 | – | – | Compound recovery (Brain [3]): Active
Nc1nnc(-c2cccc(Cl)c2Cl)c(N)n1 [LAMOTRIGINE] | 0.96 | 4.6 mL/g | – | 0.21 | – | – | –
C[C@H]1COc2c(N3CCN(C)CC3)c(F)cc3c(=O)c(C(=O)O)cn1c23.C[C@H]1COc2c(N3CCN(C)CC3)c(F)cc3c(=O)c(C(=O)O)cn1c23.O [LEVOFLOXACIN] | – | – | – | 0.84 | 1.44 | 1.7 mL/g | –
CN(C)C(=O)C(CCN1CCC(O)(c2ccc(Cl)cc2)CC1)(c1ccccc1)c1ccccc1 [LOPERAMIDE] | – | – | 9 | 0.008 | 2.95 | 370 mL/g | Unbound brain volume of distribution (Brain [2]): Active
CN(C)C(=N)N=C(N)N [METFORMIN] | – | – | – | 0.95 | 9.51 | 10 mL/g | Compound recovery (Brain [3]): Active
CN(Cc1cnc2nc(N)nc(N)c2n1)c1ccc(C(=O)N[C@@H](CCC(=O)O)C(=O)O)cc1 [METHOTREXATE] | 0.61 | 0.68 mL/g | – | 0.89 | – | – | –

SMILES | Kp uu (in vivo; brain) | Vdu (Brain [1]; in vivo) | pKa (physchem) | fraction unbound at 5 µM (in vitro) | Kp uu (in vivo; brain and plasma) | Vdu (Brain [1]) | also measured
Cc1ncc2n1-c1ccc(Cl)cc1C(c1ccccc1F)=NC2 [MIDAZOLAM] | – | – | 5.4 | 0.026 | 0.74 | 29 mL/g | –
O=C1c2c(O)ccc(O)c2C(=O)c2c(NCCNCCO)ccc(NCCNCCO)c21 [MITOXANTRONE] | – | – | 8.4 | 0.0046 | 8.01 | 1757 mL/g | Compound recovery (Brain [7]): Active; Compound recovery (Brain [8]): Active; pKa [6]: 3.2; Compound recovery (Brain [9]): Active
CN1CC[C@]23c4c5ccc(O[C@@H]6O[C@H](C(=O)O)[C@@H](O)[C@H](O)[C@H]6O)c4O[C@H]2[C@@H](O)C=C[C@H]3[C@H]1C5 [MORPHINE 3-GLUCURONIDE] | – | – | – | 0.97 | 0.58 | 0.6 mL/g | –
CN1CC[C@]23c4c5ccc(O)c4O[C@H]2[C@@H](O[C@@H]2O[C@H](C(=O)O)[C@@H](O)[C@H](O)[C@H]2O)C=C[C@H]3[C@H]1C5 [MORPHINE GLUCURONIDE] | – | – | 9 | 0.87 | 0.86 | 0.98 mL/g | pKa [6]: 4.3
CO[C@@]1(NC(=O)C(C(=O)O)c2ccc(O)cc2)C(=O)N2C(C(=O)O)=C(CSc3nnnn3C)CO[C@@H]21 (stereo partly specified) [MOXALACTAM] | 0.46 | 0.46 mL/g | – | – | – | – | Fu (Brain [10]): 12; pKa [6]: 2.9
CC(C)(C)NCC(O)COc1cccc2c1CC(O)C(O)C2 (stereo unspecified) [NADOLOL] | – | – | 9.9 | – | – | – | –
CN(C)C(=O)Oc1cccc([N+](C)(C)C)c1 [NEOSTIGMINE] | – | – | – | 0.95 | 3.07 | 3.2 mL/g | Compound recovery (Brain [3]): Active; Compound recovery (Brain [4]): Not Active
CCn1cc(C(=O)O)c(=O)c2cc(F)c(N3CCNCC3)cc21 [NORFLOXACIN] | 1.66 | 2.9 mL/g | 8.7 | 0.58 | – | – | pKa [6]: 4.4
C=CCOc1ccccc1OCC(O)CNC(C)C (stereo unspecified) [OXPRENOLOL] | 3.25 | 11.8 mL/g | 9.7 | 0.28 | – | – | –
CN1CC[C@]23c4c5ccc(O)c4O[C@H]2C(=O)CC[C@@]3(O)[C@H]1C5 [OXYMORPHONE] | – | – | 8.7 | 0.75 | 2.97 | 4 mL/g | –
CC(=O)O[C@H]1C(=O)[C@@]2(C)[C@H]([C@H](OC(=O)c3ccccc3)[C@]3(O)C[C@H](OC(=O)[C@H](O)[C@@H](NC(=O)c4ccccc4)c4ccccc4)C(C)=C1C3(C)C)[C@]1(OC(C)=O)CO[C@@H]1C[C@@H]2O [PACLITAXEL] | – | – | – | 0.012 | 9.03 | 769 mL/g | –
CC(C)NCC(O)COc1cccc2[nH]ccc12 (stereo unspecified) [PINDOLOL] | 2.89 | – | – | 0.4 | – | – | –
CC(C)NCC(O)COc1cccc2ccccc12 (stereo unspecified) [PROPRANOLOL] | – | – | – | 0.029 | – | 112 mL/g | Compound recovery (Brain [11]): Not Active
C=C[C@H]1C[N@@]2CC[C@H]1C[C@@H]2[C@@H](O)c1ccnc2ccc(OC)cc12 [QUINIDINE] | 3.45 | – | – | – | – | – | –
C=C[C@H]1C[N@@]2CC[C@H]1C[C@H]2[C@H](O)c1ccnc2ccc(OC)cc12 [QUININE] | 3.51 | – | – | – | – | – | –
CO[C@H]1/C=C/O[C@@]2(C)Oc3c(C)c(O)c4c(O)c(c(/C=N/N5CCN(C)CC5)c(O)c4c3C2=O)NC(=O)/C(C)=C\C=C\[C@H](C)[C@H](O)[C@@H](C)[C@@H](O)[C@@H](C)[C@H](OC(C)=O)[C@@H]1C [RIFAMPIN] | – | – | 7.6 | – | – | – | pKa [6]: 2.2
O=C(O)c1ccccc1O [SALICYLIC ACID] | 0.62 | 1 mL/g | – | 0.63 | – | – | –
O=C(O)c1cc(/N=N/c2ccc(S(=O)(=O)Nc3ccccn3)cc2)ccc1O [SULFASALAZINE] | – | – | – | – | – | – | pKa [6]: 2
Nc1c2c(nc3ccccc13)CCCC2 [TACRINE] | – | 22 mL/g | – | 0.16 | – | – | –
CC[N+](CC)(CC)CC [TETRYLAMMONIUM] | 8.95 | 9 mL/g | – | 1 | – | – | Compound recovery (Brain [3]): Active; Compound recovery (Brain [4]): Not Active
CCCC(C)C1(CC)C(=O)NC(=S)NC1=O (stereo unspecified) [THIOPENTAL] | – | – | – | – | – | – | pKa [6]: 7.6
CSc1ccc2c(c1)N(CCC1CCCCN1C)c1ccccc1S2 (stereo unspecified) [THIORIDAZINE] | 2.24 | 3333 mL/g | 8.9 | 0.00067 | – | – | –
CC1(C)O[C@@H]2[C@@H](CO[C@@]3(COS(N)(=O)=O)OC(C)(C)O[C@@H]23)O1 [TOPIRAMATE] | – | – | – | 0.61 | 1.96 | 3.2 mL/g | –
COc1cccc(C2(O)CCCCC2CN(C)C)c1 (stereo unspecified) [TRAMADOL] | 2.25 | 4.2 mL/g | 9.7 | 0.53 | – | – | –
